# Test results as given in ChEMBL document CHEMBL5625277, “Systematical mutational analysis of teriparatide on anti-osteoporosis activity by alanine scanning” (Bioorg Med Chem Lett, 2024).
# Assay: Cytotoxicity in pre-osteoblasts (unknown origin) assessed as cell death upto 5 uM by CCK8 assay
# Type: toxicity, cell-based
# Settings: pre-osteoblast
row,SMILES,Activity
1,CC[C@H](C)[C@H](NC(=O)[C@H](CCC(=O)O)NC(=O)[C@H](CO)NC(=O)[C@@H](NC(=O)[C@H](CO)NC(C)=O)C(C)C)C(=O)N[C@@H](CCC(N)=O)C(=O)N[C@@H](CC(C)C)C(=O)N[C@@H](CCSC)C(=O)N[C@@H](Cc1cnc[nH]1)C(=O)N[C@@H](CC(N)=O)C(=O)N[C@@H](CC(C)C)C(=O)NCC(=O)N[C@@H](CCCCN)C(=O)N[C@@H](Cc1cnc[nH]1)C(=O)N[C@@H](CC(C)C)C(=O)N[C@@H](CC(N)=O)C(=O)N[C@@H](CO)C(=O)N[C@@H](CCSC)C(=O)N[C@@H](CCC(=O)O)C(=O)N[C@@H](CCCNC(=N)N)C(=O)N[C@H](C(=O)N[C@@H](C)C(=O)N[C@@H](Cc1c[nH]c2ccccc12)C(=O)N[C@@H](CC(C)C)C(=O)N[C@@H](CCCNC(=N)N)C(=O)N[C@@H](CCCCN)C(=O)N[C@@H](CCCCN)C(=O)N[C@@H](CC(C)C)C(=O)N[C@@H](CCC(N)=O)C(=O)N[C@@H](CC(=O)O)C(=O)N[C@H](C(=O)N[C@@H](Cc1cnc[nH]1)C(=O)N[C@@H](CC(N)=O)C(=O)N[C@@H](Cc1ccccc1)C(N)=O)C(C)C)C(C)C,Non-Toxic
2,CC[C@H](C)[C@H](NC(=O)[C@H](CCC(=O)O)NC(=O)[C@H](C)NC(=O)[C@@H](NC(=O)[C@H](CO)NC(C)=O)C(C)C)C(=O)N[C@@H](CCC(N)=O)C(=O)N[C@@H](CC(C)C)C(=O)N[C@@H](CCSC)C(=O)N[C@@H](Cc1cnc[nH]1)C(=O)N[C@@H](CC(N)=O)C(=O)N[C@@H](CC(C)C)C(=O)NCC(=O)N[C@@H](CCCCN)C(=O)N[C@@H](Cc1cnc[nH]1)C(=O)N[C@@H](CC(C)C)C(=O)N[C@@H](CC(N)=O)C(=O)N[C@@H](CO)C(=O)N[C@@H](CCSC)C(=O)N[C@@H](CCC(=O)O)C(=O)N[C@@H](CCCNC(=N)N)C(=O)N[C@H](C(=O)N[C@@H](CCC(=O)O)C(=O)N[C@@H](Cc1c[nH]c2ccccc12)C(=O)N[C@@H](CC(C)C)C(=O)N[C@@H](CCCNC(=N)N)C(=O)N[C@@H](CCCCN)C(=O)N[C@@H](CCCCN)C(=O)N[C@@H](CC(C)C)C(=O)N[C@@H](CCC(N)=O)C(=O)N[C@@H](CC(=O)O)C(=O)N[C@H](C(=O)N[C@@H](Cc1cnc[nH]1)C(=O)N[C@@H](CC(N)=O)C(=O)N[C@@H](Cc1ccccc1)C(N)=O)C(C)C)C(C)C,Non-Toxic
3,CC[C@H](C)[C@H](NC(=O)[C@H](CCC(=O)O)NC(=O)[C@H](CO)NC(=O)[C@@H](NC(=O)[C@H](CO)NC(C)=O)C(C)C)C(=O)N[C@@H](CCC(N)=O)C(=O)N[C@@H](CC(C)C)C(=O)N[C@@H](CCSC)C(=O)N[C@@H](Cc1cnc[nH]1)C(=O)N[C@@H](CC(N)=O)C(=O)N[C@@H](CC(C)C)C(=O)NCC(=O)N[C@@H](CCCCN)C(=O)N[C@@H](Cc1cnc[nH]1)C(=O)N[C@@H](CC(C)C)C(=O)N[C@@H](CC(N)=O)C(=O)N[C@@H](CO)C(=O)N[C@@H](CCSC)C(=O)N[C@@H](CCC(=O)O)C(=O)N[C@@H](CCCNC(=N)N)C(=O)N[C@H](C(=O)N[C@@H](CCC(=O)O)C(=O)N[C@@H](Cc1c[nH]c2ccccc12)C(=O)N[C@@H](CC(C)C)C(=O)N[C@@H](CCCNC(=N)N)C(=O)N[C@@H](CCCCN)C(=O)N[C@@H](C)C(=O)N[C@@H](CC(C)C)C(=O)N[C@@H](CCC(N)=O)C(=O)N[C@@H](CC(=O)O)C(=O)N[C@H](C(=O)N[C@@H](Cc1cnc[nH]1)C(=O)N[C@@H](CC(N)=O)C(=O)N[C@@H](Cc1ccccc1)C(N)=O)C(C)C)C(C)C,Non-Toxic
4,CC[C@H](C)[C@H](NC(=O)[C@H](CCC(=O)O)NC(=O)[C@H](CO)NC(=O)[C@@H](NC(=O)[C@H](CO)NC(C)=O)C(C)C)C(=O)N[C@@H](CCC(N)=O)C(=O)N[C@@H](CC(C)C)C(=O)N[C@@H](CCSC)C(=O)N[C@@H](Cc1cnc[nH]1)C(=O)N[C@@H](CC(N)=O)C(=O)N[C@@H](CC(C)C)C(=O)NCC(=O)N[C@@H](CCCCN)C(=O)N[C@@H](Cc1cnc[nH]1)C(=O)N[C@@H](CC(C)C)C(=O)N[C@@H](CC(N)=O)C(=O)N[C@@H](CO)C(=O)N[C@@H](CCSC)C(=O)N[C@@H](CCC(=O)O)C(=O)N[C@@H](CCCNC(=N)N)C(=O)N[C@H](C(=O)N[C@@H](CCC(=O)O)C(=O)N[C@@H](Cc1c[nH]c2ccccc12)C(=O)N[C@@H](CC(C)C)C(=O)N[C@@H](CCCNC(=N)N)C(=O)N[C@@H](CCCCN)C(=O)N[C@@H](CCCCN)C(=O)N[C@@H](CC(C)C)C(=O)N[C@@H](C)C(=O)N[C@@H](CC(=O)O)C(=O)N[C@H](C(=O)N[C@@H](Cc1cnc[nH]1)C(=O)N[C@@H](CC(N)=O)C(=O)N[C@@H](Cc1ccccc1)C(N)=O)C(C)C)C(C)C,Non-Toxic
5,CC[C@H](C)[C@H](NC(=O)[C@H](CCC(=O)O)NC(=O)[C@H](CO)NC(=O)[C@@H](NC(=O)[C@H](CO)NC(C)=O)C(C)C)C(=O)N[C@@H](CCC(N)=O)C(=O)N[C@@H](CC(C)C)C(=O)N[C@@H](CCSC)C(=O)N[C@@H](Cc1cnc[nH]1)C(=O)N[C@@H](CC(N)=O)C(=O)N[C@@H](CC(C)C)C(=O)NCC(=O)N[C@@H](CCCCN)C(=O)N[C@@H](Cc1cnc[nH]1)C(=O)N[C@@H](CC(C)C)C(=O)N[C@@H](CC(N)=O)C(=O)N[C@@H](CO)C(=O)N[C@@H](C)C(=O)N[C@@H](CCC(=O)O)C(=O)N[C@@H](CCCNC(=N)N)C(=O)N[C@H](C(=O)N[C@@H](CCC(=O)O)C(=O)N[C@@H](Cc1c[nH]c2ccccc12)C(=O)N[C@@H](CC(C)C)C(=O)N[C@@H](CCCNC(=N)N)C(=O)N[C@@H](CCCCN)C(=O)N[C@@H](CCCCN)C(=O)N[C@@H](CC(C)C)C(=O)N[C@@H](CCC(N)=O)C(=O)N[C@@H](CC(=O)O)C(=O)N[C@H](C(=O)N[C@@H](Cc1cnc[nH]1)C(=O)N[C@@H](CC(N)=O)C(=O)N[C@@H](Cc1ccccc1)C(N)=O)C(C)C)C(C)C,Non-Toxic
6,CC[C@H](C)[C@H](NC(=O)[C@H](CCC(=O)O)NC(=O)[C@H](CO)NC(=O)[C@@H](NC(=O)[C@H](CO)NC(C)=O)C(C)C)C(=O)N[C@@H](CCC(N)=O)C(=O)N[C@@H](CC(C)C)C(=O)N[C@@H](CCSC)C(=O)N[C@@H](Cc1cnc[nH]1)C(=O)N[C@@H](CC(N)=O)C(=O)N[C@@H](CC(C)C)C(=O)NCC(=O)N[C@@H](CCCCN)C(=O)N[C@@H](Cc1cnc[nH]1)C(=O)N[C@@H](CC(C)C)C(=O)N[C@@H](CC(N)=O)C(=O)N[C@@H](CO)C(=O)N[C@@H](CCSC)C(=O)N[C@@H](CCC(=O)O)C(=O)N[C@@H](CCCNC(=N)N)C(=O)N[C@H](C(=O)N[C@@H](CCC(=O)O)C(=O)N[C@@H](Cc1c[nH]c2ccccc12)C(=O)N[C@@H](C)C(=O)N[C@@H](CCCNC(=N)N)C(=O)N[C@@H](CCCCN)C(=O)N[C@@H](CCCCN)C(=O)N[C@@H](CC(C)C)C(=O)N[C@@H](CCC(N)=O)C(=O)N[C@@H](CC(=O)O)C(=O)N[C@H](C(=O)N[C@@H](Cc1cnc[nH]1)C(=O)N[C@@H](CC(N)=O)C(=O)N[C@@H](Cc1ccccc1)C(N)=O)C(C)C)C(C)C,Non-Toxic
7,CC[C@H](C)[C@H](NC(=O)[C@H](CCC(=O)O)NC(=O)[C@H](CO)NC(=O)[C@@H](NC(=O)[C@H](CO)NC(C)=O)C(C)C)C(=O)N[C@@H](CCC(N)=O)C(=O)N[C@@H](CC(C)C)C(=O)N[C@@H](CCSC)C(=O)N[C@@H](Cc1cnc[nH]1)C(=O)N[C@@H](CC(N)=O)C(=O)N[C@@H](CC(C)C)C(=O)NCC(=O)N[C@@H](CCCCN)C(=O)N[C@@H](Cc1cnc[nH]1)C(=O)N[C@@H](CC(C)C)C(=O)N[C@@H](C)C(=O)N[C@@H](CO)C(=O)N[C@@H](CCSC)C(=O)N[C@@H](CCC(=O)O)C(=O)N[C@@H](CCCNC(=N)N)C(=O)N[C@H](C(=O)N[C@@H](CCC(=O)O)C(=O)N[C@@H](Cc1c[nH]c2ccccc12)C(=O)N[C@@H](CC(C)C)C(=O)N[C@@H](CCCNC(=N)N)C(=O)N[C@@H](CCCCN)C(=O)N[C@@H](CCCCN)C(=O)N[C@@H](CC(C)C)C(=O)N[C@@H](CCC(N)=O)C(=O)N[C@@H](CC(=O)O)C(=O)N[C@H](C(=O)N[C@@H](Cc1cnc[nH]1)C(=O)N[C@@H](CC(N)=O)C(=O)N[C@@H](Cc1ccccc1)C(N)=O)C(C)C)C(C)C,Non-Toxic
8,CC[C@H](C)[C@H](NC(=O)[C@H](CCC(=O)O)NC(=O)[C@H](CO)NC(=O)[C@@H](NC(=O)[C@H](CO)NC(C)=O)C(C)C)C(=O)N[C@@H](CCC(N)=O)C(=O)N[C@@H](C)C(=O)N[C@@H](CCSC)C(=O)N[C@@H](Cc1cnc[nH]1)C(=O)N[C@@H](CC(N)=O)C(=O)N[C@@H](CC(C)C)C(=O)NCC(=O)N[C@@H](CCCCN)C(=O)N[C@@H](Cc1cnc[nH]1)C(=O)N[C@@H](CC(C)C)C(=O)N[C@@H](CC(N)=O)C(=O)N[C@@H](CO)C(=O)N[C@@H](CCSC)C(=O)N[C@@H](CCC(=O)O)C(=O)N[C@@H](CCCNC(=N)N)C(=O)N[C@H](C(=O)N[C@@H](CCC(=O)O)C(=O)N[C@@H](Cc1c[nH]c2ccccc12)C(=O)N[C@@H](CC(C)C)C(=O)N[C@@H](CCCNC(=N)N)C(=O)N[C@@H](CCCCN)C(=O)N[C@@H](CCCCN)C(=O)N[C@@H](CC(C)C)C(=O)N[C@@H](CCC(N)=O)C(=O)N[C@@H](CC(=O)O)C(=O)N[C@H](C(=O)N[C@@H](Cc1cnc[nH]1)C(=O)N[C@@H](CC(N)=O)C(=O)N[C@@H](Cc1ccccc1)C(N)=O)C(C)C)C(C)C,Non-Toxic
9,CC[C@H](C)[C@H](NC(=O)[C@H](CCC(=O)O)NC(=O)[C@H](CO)NC(=O)[C@@H](NC(=O)[C@H](CO)NC(C)=O)C(C)C)C(=O)N[C@@H](CCC(N)=O)C(=O)N[C@@H](CC(C)C)C(=O)N[C@@H](CCSC)C(=O)N[C@@H](Cc1cnc[nH]1)C(=O)N[C@@H](CC(N)=O)C(=O)N[C@@H](CC(C)C)C(=O)NCC(=O)N[C@@H](CCCCN)C(=O)N[C@@H](Cc1cnc[nH]1)C(=O)N[C@@H](C)C(=O)N[C@@H](CC(N)=O)C(=O)N[C@@H](CO)C(=O)N[C@@H](CCSC)C(=O)N[C@@H](CCC(=O)O)C(=O)N[C@@H](CCCNC(=N)N)C(=O)N[C@H](C(=O)N[C@@H](CCC(=O)O)C(=O)N[C@@H](Cc1c[nH]c2ccccc12)C(=O)N[C@@H](CC(C)C)C(=O)N[C@@H](CCCNC(=N)N)C(=O)N[C@@H](CCCCN)C(=O)N[C@@H](CCCCN)C(=O)N[C@@H](CC(C)C)C(=O)N[C@@H](CCC(N)=O)C(=O)N[C@@H](CC(=O)O)C(=O)N[C@H](C(=O)N[C@@H](Cc1cnc[nH]1)C(=O)N[C@@H](CC(N)=O)C(=O)N[C@@H](Cc1ccccc1)C(N)=O)C(C)C)C(C)C,Non-Toxic
